The text below walks through data of publication PMC5376056, “Developing Hypothetical Inhibition Mechanism of Novel Urea Transporter B Inhibitor” (Scientific Reports, 2014).

Test [1] deals with T1, UT-B (Mus musculus, UniProt Q8VHL0).
T1 construct: using erythrocytes, which originally express UT-B; endogenous in cells; host or cells: wild-type mouse erythrocytes (vein blood)
T1 sequence (Q8VHL0 1-384): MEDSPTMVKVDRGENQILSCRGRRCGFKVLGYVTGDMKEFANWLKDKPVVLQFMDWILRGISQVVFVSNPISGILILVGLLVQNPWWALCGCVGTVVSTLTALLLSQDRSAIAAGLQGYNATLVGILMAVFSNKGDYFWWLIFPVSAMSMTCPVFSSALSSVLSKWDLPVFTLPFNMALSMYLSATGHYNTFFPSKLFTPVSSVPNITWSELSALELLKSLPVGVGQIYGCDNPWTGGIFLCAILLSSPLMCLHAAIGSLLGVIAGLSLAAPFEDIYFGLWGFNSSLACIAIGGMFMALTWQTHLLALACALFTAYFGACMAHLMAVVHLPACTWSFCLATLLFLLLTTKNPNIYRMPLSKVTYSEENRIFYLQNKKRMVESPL
Description: erythrocyte osmotic lysis assay, mouse erythrocytes. Format: cell-based. The settings on record: mean ± s.e.m., n = 3. The protocol:
(§1) Vein blood was collected from humans, SD rats, wild-type mice or UT-B-null mice as described previously.
(§2) High-throughput screening assay was performed for identification of UT-B inhibitors using erythrocytes, which originally express UT-B as described previously. Erythrocytes were diluted to a hematocrit value of 2% in hyperosmolar PBS containing 1.25 M acetamide and 5 mM glucose. Erythrocyte suspensions were preserved at room temperature for 2 h by periodic pipette mixture. Then, 99 μl erythrocyte suspension from a reservoir was added to each well of a 96-well round-bottom microplate, to which test compounds were added (1 μl, 10 μM final compound concentration, 1% final DMSO concentration). After 6 min of incubation, 20 μl of the erythrocyte suspension was added rapidly to each well of a 96-well black-walled plate containing 180 μl isomolar buffer (PBS containing 1% DMSO) in each well. Erythrocyte lysis was quantified from a single time point measure of absorbance at 710 nm wavelength with a plate reader (BioTek)[27].
(§3) The percentage of erythrocyte lysis in each test well was calculated using control values from the same plate as: % lysis = 100%. (Aneg-Atest)/(Aneg-Apos), where Atest is the absorbance value from a test well. Nonspecific UT-B inhibitor phloretin (Sigma-Aldrich, 700 μM final concentration) was added as an additional positive control.

The target in test [2] is T2, UT-B (Homo sapiens, UniProt Q13336).
T2 construct: using erythrocytes, which originally express UT-B; endogenous in cells; host or cells: human erythrocytes (vein blood)
T2 sequence (Q13336 1-389): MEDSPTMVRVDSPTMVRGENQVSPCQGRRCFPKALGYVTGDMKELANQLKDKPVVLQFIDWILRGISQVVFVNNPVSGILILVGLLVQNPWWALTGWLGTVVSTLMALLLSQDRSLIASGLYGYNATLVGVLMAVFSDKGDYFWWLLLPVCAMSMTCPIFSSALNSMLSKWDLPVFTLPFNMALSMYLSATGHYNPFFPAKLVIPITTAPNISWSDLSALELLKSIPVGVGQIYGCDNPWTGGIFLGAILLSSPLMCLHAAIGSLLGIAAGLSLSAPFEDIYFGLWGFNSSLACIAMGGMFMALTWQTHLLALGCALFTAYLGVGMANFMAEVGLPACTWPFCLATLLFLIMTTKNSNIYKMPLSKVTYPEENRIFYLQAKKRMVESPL
Description: erythrocyte osmotic lysis assay, human erythrocytes. The class given is cell-based. The settings on record: mean ± s.e.m., n = 3. The protocol: as §1, §2, §3

The target of test [3] is T3, UT-B (Rattus norvegicus, UniProt P97689).
T3 construct: using erythrocytes, which originally express UT-B; endogenous in cells; host or cells: SD rat erythrocytes (vein blood)
T3 sequence (P97689 1-384): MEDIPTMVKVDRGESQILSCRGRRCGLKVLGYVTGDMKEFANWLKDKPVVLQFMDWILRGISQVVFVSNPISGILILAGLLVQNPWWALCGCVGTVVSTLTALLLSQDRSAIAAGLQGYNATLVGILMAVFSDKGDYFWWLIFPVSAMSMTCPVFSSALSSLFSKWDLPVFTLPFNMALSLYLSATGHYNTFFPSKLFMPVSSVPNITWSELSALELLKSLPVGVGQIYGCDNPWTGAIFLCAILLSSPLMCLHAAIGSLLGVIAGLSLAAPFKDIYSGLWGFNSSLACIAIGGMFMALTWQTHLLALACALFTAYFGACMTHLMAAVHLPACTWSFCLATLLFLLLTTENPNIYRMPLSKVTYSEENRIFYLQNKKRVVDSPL
Description: erythrocyte osmotic lysis assay, rat erythrocytes. The class given is cell-based. The note with it: mean ± s.e.m., n = 3. The protocol: as §1, §2, §3

Details of test [4]: method as in PMID 23486518. The settings on record: cited from earlier work.
Test [5] has as its system UT-B. Details: method as in PMID 23486518. The note with it: rabbit; cited from earlier work.
Test [6] has as its target T1, UT-B. Details: method as in PMID 23486518. The note with it: cited from earlier work.
For test [7], the target named is T3, UT-B. Details: method as in PMID 23486518. The note with it: cited from earlier work.
The target of test [8] is T2, UT-B. Details: method as in PMID 23486518. The settings on record: cited from earlier work.
Test [9] deals with UT-B. More on the design: method as in Ren et al., under review. The settings on record: pIC50 = -log(IC50) + 6; analogues of PU21; ref Ren et al., under review; cited from earlier work.

SMILES strings stand for the structures.

For `COc1ccc2nc3sc(C(C)=O)c(N)c3cc2c1` [PU21, 1-(3-amino-6-methoxythieno[2,3-b]quinolin-2-yl)ethanone], the IC50 on UT-B [1] was found to be 4.81 ± 0.4 µM; on UT-B [2], 3.78 ± 0.48 µM; on UT-B [3] it was 2.62 ± 0.12 µM.
For `CCN(Cc1ccccc1)[C@H](c1cc2c(C)cc(C)cc2[nH]c1=O)c1nnnn1C[C@@H]1CCCO1` [PU168, 3-((R)-(benzyl(ethyl)amino)(1-(((S)-tetrahydrofuran-2-yl)methyl)-1H-tetrazol-5-yl)methyl)-5,7-dimethylquinolin-2(1H)-one], in that order: greater than 10 µM, 0.2 ± 0.03 µM and greater than 10 µM.
With `Cc1nc2ccc(NC(=O)c3ccco3)cc2c(=O)n1Cc1ccc(Cl)cc1` [PU468, N-(3-(4-chlorobenzyl)-2-methyl-4-oxo-3,4-dihydroquinazolin-6-yl)furan-2-carboxamide], the figures for the IC50 at UT-B [1], against UT-B [2] and on UT-B [3] were 4.13 ± 0.33 µM, 5.63 ± 0.82 µM and 3.18 ± 0.24 µM, respectively.
For the compound `Cn1c(=O)c2c(nc(SCC(=O)Nc3cccc(O)c3)n2Cc2ccccc2)n(C)c1=O` [PU474, 2-((7-benzyl-1,3-dimethyl-2,6-dioxo-2,3,6,7-tetrahydro-1H-purin-8-yl)thio)-N-(3-hydroxyphenyl)acetamide], the results for the IC50 against UT-B [1], at UT-B [2] and against UT-B [3] were greater than 10 µM, 0.28 ± 0.01 µM and greater than 10 µM, respectively.
Turning to `CC(=O)c1sc2nc3ccc(C)cc3cc2c1N` [PU-14], in test [4], the “diuresis activity in vivo” value is on record as “pharmacological diuresis activity”. Also, the “UT-B inhibition activity in vitro” value in the test on UT-B [5], at UT-B [6], at UT-B [7] and on UT-B [8] was “potential inhibition activity” throughout. The pIC50 at UT-B [9] is recorded as 5.454.
